Results as given in patent publication US20240317696A1, “ALKYL CARBOXYLIC ACID COMPOUNDS AND APPLICATION THEREOF” (MEDSHINE DISCOVERY INC., priority 2021, published 2024).

Columns and labels:
sGC = sGC (Homo sapiens (Human), UniProt Q02153); assay: cGMP expression test based on LNCap cells (sGC stimulatory activity); type: cell-based; conditions: ODQ present; for MEC: Minimum effective concentration required to stimulate cGMP production in LNCap cells (greater than three times the baseline value); for EC50: cGMP production in LNCap cells
Chain of sGC (Q02153 whole entry): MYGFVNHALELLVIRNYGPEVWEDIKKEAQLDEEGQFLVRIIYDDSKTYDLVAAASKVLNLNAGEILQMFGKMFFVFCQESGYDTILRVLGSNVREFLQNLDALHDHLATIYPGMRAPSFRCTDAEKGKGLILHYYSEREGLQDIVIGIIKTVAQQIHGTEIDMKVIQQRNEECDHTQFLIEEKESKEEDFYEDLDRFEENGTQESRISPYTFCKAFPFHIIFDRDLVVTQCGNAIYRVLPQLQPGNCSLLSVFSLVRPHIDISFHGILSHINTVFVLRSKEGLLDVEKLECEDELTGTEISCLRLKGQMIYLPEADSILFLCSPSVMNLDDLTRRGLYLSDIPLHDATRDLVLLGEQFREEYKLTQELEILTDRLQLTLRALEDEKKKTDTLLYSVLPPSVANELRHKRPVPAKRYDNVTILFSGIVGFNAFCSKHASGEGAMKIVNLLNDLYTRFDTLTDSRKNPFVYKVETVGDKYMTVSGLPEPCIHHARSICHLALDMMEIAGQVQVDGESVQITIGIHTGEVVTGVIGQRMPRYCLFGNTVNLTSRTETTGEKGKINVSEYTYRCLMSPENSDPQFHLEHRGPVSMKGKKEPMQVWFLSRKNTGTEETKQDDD
Chain of sGC (Q02108 whole entry partner): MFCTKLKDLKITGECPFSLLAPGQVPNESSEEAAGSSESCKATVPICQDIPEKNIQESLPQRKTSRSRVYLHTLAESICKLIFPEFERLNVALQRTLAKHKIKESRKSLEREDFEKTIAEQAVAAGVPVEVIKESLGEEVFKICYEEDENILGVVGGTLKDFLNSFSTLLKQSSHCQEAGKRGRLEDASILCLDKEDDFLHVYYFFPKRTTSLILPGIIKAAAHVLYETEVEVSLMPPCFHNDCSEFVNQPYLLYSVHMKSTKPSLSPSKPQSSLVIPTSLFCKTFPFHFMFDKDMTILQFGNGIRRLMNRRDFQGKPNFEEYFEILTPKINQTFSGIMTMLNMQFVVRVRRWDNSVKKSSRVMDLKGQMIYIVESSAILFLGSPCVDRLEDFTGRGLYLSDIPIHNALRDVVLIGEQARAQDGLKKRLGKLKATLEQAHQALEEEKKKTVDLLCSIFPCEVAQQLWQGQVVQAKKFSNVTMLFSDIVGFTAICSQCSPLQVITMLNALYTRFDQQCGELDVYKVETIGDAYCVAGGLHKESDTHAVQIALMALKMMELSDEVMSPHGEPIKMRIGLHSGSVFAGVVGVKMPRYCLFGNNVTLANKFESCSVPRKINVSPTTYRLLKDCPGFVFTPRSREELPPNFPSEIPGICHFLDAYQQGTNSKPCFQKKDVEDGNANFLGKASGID
Protocol: I. cGMP Expression Test Based on InCap Cells
(1) The compound was diluted to a concentration of 10 mM using DMSO.
(2) A serial dilution of the compound was performed, resulting in 10 different concentration levels of each compound. 100 nL of each diluted compound was added to a 96-well plate.
3) Preparation of LNCap Cells
(1) LNCap culture medium: RPMI1640 supplemented with 10% fetal bovine serum (FBS) and 1% double antibody
(9) Assay buffer was added, and the cell concentration was adjusted to 3×10^6/mL.
4) Preparation and Addition of ODQ Solution
(1) 10 mM ODQ stock solution was diluted at a ratio of 1:1000 and added to the cell solution.
(2) After thorough mixing, the solution was added to a microplate at 10 μL per well.
5) Preparation of cGMP Standard Curve
(1) 1 mM cGMP stock solution was diluted to 10 μM using assay buffer. 11 concentration gradients were created through 4-fold serial dilutions.
(2) The diluted cGMP was added to the microplate at 10 μL per well.
6) Addition of Assay Reagents and Plate Reading
(1) cGMP-D2 was transferred to a 384-well plate at 5 μL per well. Anti-cGMP cryptate was transferred to a […] at 5 μL per well. Centrifugation was performed at 1500 rpm for 1 minute.
(2) Incubation was carried out at room temperature for 1 hour.
(3) The plates were read using envision at 665/615 wavelengths.
(1) cGMP standard curve: A standard curve was generated using GraphPad Prism, based on the ratio of cGMP concentration to the 665/615 wavelength values.
(2) Conversion of HTRF (homogeneous time-resolved fluorescence) ratio (665/615) to cGMP concentration: In GraphPad Prism, the HTRF ratio (665/615) was copied to the ratio column of the cGMP standard curve. The analysis “Log inhibitor vs response-variable slope” was run, and the “interpolate” option was selected to convert the HTRF ratio (665/615) into cGMP concentration.
(3) Compound activation curve: A curve was generated using the “Log agonist vs response-variable slope” analysis method in GraphPad Prism, based on the converted cGMP concentration and compound concentration.

hepatocytes [1] = assay: In vitro hepatocyte metabolic stability, mouse; type: in vitro ADME; conditions: test compound 1 μM, 0.5×10^6 cells/mL
Protocol: (§1) 1. Experimental Objective: The Aim of the Study was to Assess the Stability of the Compounds in Hepatocytes of Different Species.
(§2) A variety of 96-well precipitation plates were prepared and labeled as T0, T15, T30, T60, T90, T0-MC, T90-MC, and blank matrix, respectively. Revival medium and incubation medium were taken in advance and pre-warmed in a 37° C. water bath. Hepatocytes of different species, stored in a liquid nitrogen tank, were taken and immediately immersed in a 37° C. water bath for approximately 90 seconds. Once partially thawed, cells were transferred to centrifuge tubes containing 40 mL of revival medium, and gently inverted to resuspend the cells in the revival medium. At room temperature, cells were centrifuged at 100×g for 5 minutes. The supernatant was discarded, and the hepatocytes were resuspended in an appropriate volume of incubation medium. Viability was calculated using trypan blue staining. 198 μL of hepatocyte suspension (0.51×10^6 cells/mL) was added to pre-warmed incubation plates. For the control group, 198 μL of hepatocyte-free incubation medium was added to T0-MC and […] plates. All plates were pre-incubated for 10 minutes in a 37° C. incubator. […] All samples were mixed well and analyzed using LC/MS/MS methods.

hepatocytes [2] = assay: In vitro hepatocyte metabolic stability, rat; type: in vitro ADME; conditions: test compound 1 μM, 0.5×10^6 cells/mL
Protocol: as §1, §2

hepatocytes [3] = assay: In vitro hepatocyte metabolic stability, human; type: in vitro ADME; conditions: test compound 1 μM, 0.5×10^6 cells/mL
Protocol: as §1, §2

[4] = In vivo pharmacokinetic property study in male Sprague Dawley rats
Protocol: Experimental objective: The aim of this study was to determine the pharmacokinetic parameters of the compound in male Sprague Dawley rats.
Sprague Dawley rats (male, 200 to 300 g, 7 to 9 weeks old, procured from Shanghai SLAC)
For this project, four male Sprague Dawley rats were used. Two rats in one group were administered the compound intravenously at a dosage of 2 mg/kg and a concentration of 0.4 mg/mL. Two rats in another group were administered the compound orally at a dosage of 10 mg/kg and a concentration of 1 mg/mL. Plasma samples were collected 0.083 (intravenous group only), 0.25, 0.5, 1, 2, 4, 6, 8, and 24 hours after administration. The collected samples were then analyzed using LC-MS/MS and data were collected. The collected analytical data were processed using Phoenix WinNonlin 6.3 software to calculate relevant pharmacokinetic parameters.

SMILES | MEC (sGC) [nM] | EC50 (sGC) [nM] | also measured
C[C@H]([C@H](C(=O)Nc1cc(C(CC(=O)O)C2CCCC2)ccc1Cl)c1ccc(Cl)cc1)C(F)(F)F (stereo partly drawn) [WX001] | 4.20 | 6.62 | 
C[C@H]([C@H](C(=O)Nc1cc([C@@H](CC(=O)O)[C@H]2CCCO2)ccc1Cl)c1ccc(Cl)cc1)C(F)(F)F [WX016] | 27.85 | 145 | 
C[C@H]([C@H](C(=O)Nc1cc(C(CC(=O)O)C23CC(F)(C2)C3)ccc1F)c1ccc(Cl)cc1)C(F)(F)F (stereo partly drawn) [WX007] | 0.65 | 3.28 | 
COC12CC(C(CC(=O)O)c3ccc(Cl)c(NC(=O)[C@H](c4ccc(Cl)cc4)[C@@H](C)C(F)(F)F)c3)(C1)C2 (stereo partly drawn) [WX013] | 1.22 | 3.5 | 
C[C@H]([C@H](C(=O)Nc1cc(C(CC(=O)O)C23CC(F)(C2)C3)ccc1Cl)c1ccc(Cl)cc1)C(F)(F)F (stereo partly drawn) [WX004] | 0.61 | 3.74 | 

These reach a lower EC50 (sGC). Values come first.

MEC (sGC) [nM] | EC50 (sGC) [nM] | SMILES | also measured
0.27 | 2.06 | C[C@H]([C@H](C(=O)Nc1cc([C@@H](CC(=O)O)C23CC(F)(C2)C3)ccc1Cl)c1ccc(Cl)cc1)C(F)(F)F [WX005] | CLint (liver) (hepatocytes [1]): 610.4 mL/min/kg; T1/2 (hepatocytes [1]): 0.45 h; CLint (liver) (hepatocytes [2]): 154.7 mL/min/kg; T1/2 (hepatocytes [2]): 0.698 h; CLint (liver) (hepatocytes [3]): 49.7 mL/min/kg; T1/2 (hepatocytes [3]): 1.29 h; AUC ([4]; iv 2 mg/kg): 11.228 µM·h; Cl ([4]; iv 2 mg/kg): 5.47 mL/min/kg; T1/2 ([4]; iv 2 mg/kg): 3.83 h; Vdss ([4]; iv 2 mg/kg): 1.27 L/kg; AUC ([4]; po 10 mg/kg): 17.423 µM·h; T1/2 ([4]; po 10 mg/kg): 6.92 h; % F ([4]; po 10 mg/kg vs iv 2 mg/kg): 42.1%
2.20 | 1.76 | C[C@H]([C@H](C(=O)Nc1cc([C@@H](CC(=O)O)C2CCCC2)ccc1Cl)c1ccc(Cl)cc1)C(F)(F)F [WX002] | 
0.42 | 1.65 | COC12CC([C@H](CC(=O)O)c3ccc(Cl)c(NC(=O)[C@H](c4ccc(Cl)cc4)[C@@H](C)C(F)(F)F)c3)(C1)C2 [WX014] | 
1.76 | 2.16 | Cc1ccc(C(CC(=O)O)C23CC(F)(C2)C3)cc1NC(=O)C(c1ccc(Cl)cc1)[C@@H](C)C(F)(F)F (stereo partly drawn) [WX010] | 
1.39 | 1.75 | Cc1ccc([C@@H](CC(=O)O)C23CC(F)(C2)C3)cc1NC(=O)[C@H](c1ccc(Cl)cc1)[C@@H](C)C(F)(F)F [WX011] | 
